Holding throughout (assay): DTP human tumour cell line panel, 48 h
The test system of assay [1] is 786-0 renal.
Assay [2] deals with A498 renal.
Assay [3] relates to CCRF-CEM leukemia.
Assay [4] relates to COLO 205 colon.
The test system of assay [5] is DU-145 prostate.
In assay [6] the test system is HCT-116 colon.
Assay [7] relates to HT29 colon.
Assay [8] has as its system IGROV1 ovarian.
In assay [9] the test system is NCI-H23 lung.
The test system of assay [10] is SK-MEL-5 melanoma.
Assay [11] has as its system T-47D breast.

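Five concentrations, 48 hours, 96-well plates. At the TGI there is no net growth.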 Where only a bound is given, the exact number is not on record here.

In the case of `COP(=O)(OC)c1ccc(NCc2cc(O)ccc2O)cc1`, the concentration for total growth inhibition (TGI) in [1] is 58.1 µM; in assay [2] it was over 100 µM; in assay [3], over 95.3 µM; in assay [4], over 64.6 µM; in [5], over 90.5 µM; in assay [6], over 59.7 µM. In addition, the TGI in [7] is 56.3 µM; in assay [8] it was over 67.1 µM; in assay [9] it was over 75.8 µM; in assay [10] it was 47.2 µM; in assay [11], 70.1 µM.
Take `C[C@]12CC[C@H](O)CC1=CC[C@@H]1[C@@H]2CC[C@]2(C)c3nc(Cl)ccc3C[C@@H]12`: the concentration for total growth inhibition (TGI) in [1] was over 100 µM; in [2], over 100 µM; in assay [3], over 50.4 µM; in [4], over 100 µM; in [5], over 100 µM; in assay [6], over 100 µM. The concentration for total growth inhibition (TGI) in [7], in assay [8], in assay [9], in assay [10] and in assay [11] was over 100 µM throughout.
Turning to `CCNc1cc2c3c(c1)CCCN3CCC2`, the TGI in [1] was 26 µM; in [2], 65.3 µM; in [3], 6.43 µM; in [4], 24.5 µM; in assay [5] it was over 100 µM; in assay [6], 19.2 µM. For the same compound, the TGI in assay [7] worked out at 21.6 µM; in [8], 31.5 µM; in [9], 21.9 µM; in [10], 28.2 µM; in assay [11], 67.9 µM.
Consider `O=[N+]([O-])c1ccc2nc(/C=C(\O)c3ccccc3)c(/C=C(\O)c3ccccc3)nc2c1`, for which the TGI in assay [1] was 44.3 µM; in assay [2], over 86.2 µM; in assay [3], 35.8 µM; in assay [4] it was over 100 µM; in [5], over 91 µM; in [6] it was over 37.8 µM. In addition, the TGI was over 100 µM in [7]; over 56.4 µM in [8]; over 60.4 µM in assay [9]; over 39.2 µM in assay [10]; 37.3 µM in assay [11].
For `CSC1(SC)N2Cc3ccccc3N=C2C1(c1ccccc1)c1ccccc1`, the concentration for total growth inhibition (TGI) was over 100 µM in [1]; over 46.9 µM in [2]; over 65 µM in assay [3]; 15.6 µM in [4]; over 100 µM in assay [5]; over 100 µM in assay [6]. Also, the TGI was over 100 µM in assay [7]; over 100 µM in [8]; over 100 µM in [9]; 28.8 µM in assay [10]; over 100 µM in [11].
`Cc1oncc1NC1=CC(=O)C(=O)c2ccccc21`: the total growth inhibition concentration (TGI) in assay [1] was 32.2 µM; in [2], 17.9 µM; in assay [3], 15 µM; in assay [4] it was 37.1 µM; in assay [5], 31.7 µM; in assay [6], 10.6 µM. Further, the total growth inhibition concentration (TGI) in assay [7] was found to be 11.6 µM; in assay [8], 11.8 µM; in [9] it was 17.6 µM; in assay [10] it was 3.68 µM; in [11], 11.5 µM.
Consider `CC(C)(C)OC(=O)N1Cc2cc(O)ccc2C[C@H]1C(=O)O`, for which the TGI in assay [1], in assay [2], in assay [3], in assay [4], in assay [5] and in [6] was over 100 µM each time. For the same compound, the TGI in assay [7], in assay [8], in [9], in assay [10] and in [11] was over 100 µM in each case.
Regarding `CCCCC1(N=[N+]=[N-])C(=O)C2C=CC=C3c4ccccc4N(C1=O)C32` (centres undefined), the TGI is over 31.6 µM in assay [1]; over 10 µM in assay [2]; over 31.6 µM in assay [3]; over 31.6 µM in assay [4]; over 100 µM in [5]; over 31.6 µM in [6]. The total growth inhibition concentration (TGI) was 25.8 µM in assay [7]; over 31.6 µM in assay [8]; over 31.6 µM in assay [9]; over 31.6 µM in assay [10]; over 31.6 µM in [11].
`CC1C2CC(CC2N)C1(C)C` (centres undefined): the total growth inhibition concentration (TGI) in assay [1], in assay [2], in assay [3], in [4], in assay [5] and in assay [6] was over 100 µM in each case. For the same compound, the concentration for total growth inhibition (TGI) in assay [7], in assay [8], in assay [9], in assay [10] and in assay [11] was over 100 µM in each case.
In the case of `CNC(=O)c1ccccc1[S+]1c2cccc3cccc(c23)C(=O)N1C` (centres undefined), the TGI in [1], in assay [2], in assay [3], in assay [4], in assay [5] and in assay [6] was over 100 µM throughout. For the same compound, the total growth inhibition concentration (TGI) in assay [7], in assay [8], in [9], in [10] and in assay [11] was over 100 µM each time.
With `O=C(Cc1ccccc1)N=Nc1c(O)[nH]c2ccccc12`, the TGI in assay [1] was over 100 µM; in [2], 80.4 µM; in [3], over 100 µM; in [4] it was over 100 µM; in [5], over 100 µM; in assay [6] it was over 100 µM. Further, the TGI in assay [7], in [8], in assay [9], in assay [10] and in assay [11] was over 100 µM each time.
Consider `NC(=O)c1ncn2c(=O)n(CCl)nnc12`, for which the TGI in [1], in assay [2], in assay [3], in assay [4], in [5] and in assay [6] was over 100 µM each time. The TGI in assay [7], in [8], in assay [9], in assay [10] and in assay [11] was over 100 µM in each case.
Take `CC(O)c1cc2c(s1)C(=O)c1scc(C(C)O)c1C2=O` (centres undefined): the total growth inhibition concentration (TGI) in assay [1] is 6.39 µM; in [2], 4.36 µM; in [3], over 100 µM; in assay [4], 3.66 µM; in [5] it was 1.73 µM; in assay [6], 2.64 µM. For the same compound, the TGI in [7] amounted to 5.27 µM; in assay [8], 3.63 µM; in assay [9], 0.415 µM; in assay [10], 0.351 µM; in [11] it was 4.53 µM.
`COc1cc(/C=C2\N=C(C)N(n3c(-c4ccccc4)nc4ccccc4c3=O)C2=O)cc(OC)c1OC`: the TGI in assay [1], in [2], in assay [3], in assay [4], in [5] and in assay [6] was over 100 µM in each case. The concentration for total growth inhibition (TGI) in assay [7], in assay [8], in assay [9], in [10] and in [11] was over 100 µM each time.
As for `CC1(C)O[C@H]2OC(CO)C(OS(C)(=O)=O)[C@H]2O1` (some centres undefined), the TGI in assay [1], in [2], in assay [3], in assay [4], in assay [5] and in assay [6] was over 100 µM in each case. Moreover, the concentration for total growth inhibition (TGI) in [7], in [8], in assay [9], in assay [10] and in assay [11] was over 100 µM in each case.
As for `COC(=O)c1c(O)ccc2c1c1c(n2Cc2ccccn2)C(=O)c2ccccc2C1=O`, the TGI in assay [1] is over 100 µM; in assay [2], over 100 µM; in [3] it was over 100 µM; in [4], 34.3 µM; in assay [5], over 100 µM; in [6] it was over 100 µM. Further, the TGI in assay [7] is 17.4 µM; in assay [8], over 100 µM; in assay [9], over 100 µM; in [10], over 100 µM; in [11], over 100 µM.
As for `C=CC[C@@H]1C=C[C@@H](C(=O)OC)n2c(=O)n(-c3ccccc3)c(=O)n21`, the TGI in assay [1], in assay [2], in assay [3], in assay [4], in [5] and in assay [6] was over 100 µM each time. The total growth inhibition concentration (TGI) in assay [7], in assay [8], in assay [9], in [10] and in assay [11] was over 100 µM throughout.
For `COc1ccc(-c2nnc(-c3ccncc3)o2)cc1`, the TGI in [1], in assay [2], in [3], in assay [4], in assay [5] and in assay [6] was over 100 µM in each case. Also, the total growth inhibition concentration (TGI) in assay [7], in assay [8], in assay [9], in assay [10] and in assay [11] was over 100 µM throughout.
As for `COc1cc(/C=c2/c3ccccc3n3c2cc(-c2ccccc2)[n+]3C)cc(OC)c1OC`, the TGI in assay [1] was 16.4 µM; in assay [2], over 58.3 µM; in [3] it was over 28.9 µM; in [4], 3.22 µM; in assay [5] it was 18.4 µM; in assay [6], 6.96 µM. Moreover, the TGI in [7] was 11.4 µM; in assay [8] it was 23 µM; in [9], 14.8 µM; in [10], 6.73 µM; in assay [11] it was 19.3 µM.

Values taken from PubChem BioAssay (NCI).
